Patent US9572785B2, “DP2 antagonist and uses thereof” (Brickell Biotech, Inc., priority 2009, dated 2017)
In brackets after ≈: the same amount, converted by molar mass. Read-outs that look alike come from different tables or passages of the source.

Legend:
[1] = target: T1, DP2 receptor (Cavia porcellus, UniProt H0W1T0); assay: Whole blood eosinophil shape change (ESC) assay, guinea pig; type: cell-based; settings: read-out: IC50, PGD2-induced eosinophil shape change
T1 sequence (H0W1T0 1-391): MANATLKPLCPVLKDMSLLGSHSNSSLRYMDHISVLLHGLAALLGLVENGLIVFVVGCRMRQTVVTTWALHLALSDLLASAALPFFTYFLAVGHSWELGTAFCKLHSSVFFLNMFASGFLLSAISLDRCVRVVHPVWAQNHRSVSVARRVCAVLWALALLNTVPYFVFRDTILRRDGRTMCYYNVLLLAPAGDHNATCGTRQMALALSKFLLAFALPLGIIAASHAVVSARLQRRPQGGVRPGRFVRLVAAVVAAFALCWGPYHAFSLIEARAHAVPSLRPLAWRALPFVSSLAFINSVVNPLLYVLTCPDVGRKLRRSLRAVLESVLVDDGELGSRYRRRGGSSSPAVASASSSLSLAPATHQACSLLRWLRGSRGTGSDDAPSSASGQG

[2] = target: T2, DP2 receptor (Homo sapiens, UniProt Q9Y5Y4); assay: Whole blood eosinophil shape change (ESC) assay, human; type: cell-based; set-up: endogenous in cells; host or cells: eosinophils in human whole blood
T2 sequence (Q9Y5Y4 1-395): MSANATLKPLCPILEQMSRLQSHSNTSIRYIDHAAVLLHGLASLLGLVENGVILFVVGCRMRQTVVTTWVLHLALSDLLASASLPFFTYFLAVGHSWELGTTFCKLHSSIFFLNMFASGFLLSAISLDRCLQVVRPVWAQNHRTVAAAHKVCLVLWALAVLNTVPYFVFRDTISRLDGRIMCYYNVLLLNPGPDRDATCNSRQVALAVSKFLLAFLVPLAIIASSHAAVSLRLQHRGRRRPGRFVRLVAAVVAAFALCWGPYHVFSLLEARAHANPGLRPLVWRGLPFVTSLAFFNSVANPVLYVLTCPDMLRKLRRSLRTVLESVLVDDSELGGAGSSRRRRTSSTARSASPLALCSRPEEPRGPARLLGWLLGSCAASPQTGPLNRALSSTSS
Description: Blood is drawn from consenting human volunteers in EDTA vacutainer tubes and used within 1 hr of draw. […] The blood is vortexed and incubated at 37° C. for 5 minutes. 5 μl of 1 μM PGD2 in PBS is added for a final concentration of 50 nM and the tubes briefly vortexed. The reactions are incubated for exactly 5 minutes at 37° C. and then terminated by placing the tubes on ice and immediately adding 250 μl of ice-cold 1:4 diluted Cytofix (BD Biosciences). The reactions are transferred to 12×75 mM polystyrene round bottom tubes and the red blood cells lysed by the addition of 3 ml ammonium chloride lysing solution (150 mM NH4Cl, 10 mM KHCO3, 0.1 mM EDTA disodium salt) and incubation at room temperature for 15 minutes. The cells are pelleted by spinning at 1300 rpm for 5 minutes at 4° C. and washed once with 3 ml ice-cold PBS. The cells are resuspended in 0.2 ml of ice-cold 1:4 diluted Cytofix (BD Biosciences) and analyzed on a FACSCalibur (BD Biosciences) within 2 hours. Eosinophils were gated on the basis of autofluorescence in the FL2 channel and shape change on 500 eosinophils was assayed by forward scatter and side scatter analysis. The specific change in shape induced by PGD2 was calculated as the difference between the percentage of high forward scatter eosinophils in the presence and absence of PGD2.

[3] = in vivo; settings: mouse, plasma, po, 10 mg/kg
[4] = Solubility profiling at various pHs; type: physicochemical; settings: 0.15 M NaCl (aq), pH-adjusted, 25 °C, thermodynamic from solid
Description: Aqueous solubility was determined by suspending sufficient compound in water to give a maximum final concentration of ≧10 mg·ml^−1 of the parent free-form of the compound. The suspension was equilibrated at 25° C. for 24 hours then the pH was measured. The suspension was then filtered through a glass fibre C filter into a 96 well plate. The filtrate was then diluted by an appropriate factor. Quantitation was by HPLC with reference to a standard solution of approximately 0.1 mg·ml^−1 in DMSO. Different volumes of the standard, diluted and undiluted sample solutions were injected. The solubility was calculated using the peak areas determined by integration of the peak found at the same retention time as the principal peak in the standard injection.
The aqueous solubility was determined using the method described in Table 1. The pH was varied by the suspensions being made up in 0.15 M NaCl (aq) and the pH adjusted to the appropriate value with either dilute HCl or NaOH. The suspension was then allowed to equilibrate for two hours followed by checking the pH and readjustment if required, using either HCl or NaOH as appropriate. The suspension was then allowed to equilibrate for 24 hrs.

[5] = target: T2, DP2 receptor; assay: In vitro scintillation proximity assay (SPA) off-rate; type: binding; settings: compared with PGD2
[6] = target: T3, recombinant human CRTH2 receptor (Homo sapiens, UniProt Q9Y5Y4); assay: In vitro GTPγS binding assay; type: biochemical; settings: CHO membranes, 80 nM PGD2, 0.2% human serum albumin
T3 construct: expressed in transfected cells
T3 sequence (Q9Y5Y4 1-395): T2 sequence (Q9Y5Y4 1-395)

[7] = in vivo; settings: Hartley, guinea pig, in vivo
[8] = target: T2, DP2 receptor; assay: In vitro DP2/CRTH2 radioligand binding assay ([3H]PGD2), human; set-up: expressed in transfected cells
Description: (§1) HEK293 cells stably expressing recombinant human DP2 are resuspended in 10 mM Hepes, 7.4 containing 1 mM DTT, lysed and centrifuged at 75,000×g to pellet the membranes. The membranes are resuspended in 10 mM Hepes, 7.4 containing 1 mM DTT and 10% glycerol to approximately 5 mg protein/ml. […] The reactions are terminated by rapid filtration through Whatman GF/C glass fibre filter plates. […] After harvesting, the filter plates are washed 3 times with 1 ml cold Wash Buffer then dried. Scintillant is then added to the plates and the radioactivity retained on the filters is determined on a Packard TopCount (Perkin Elmer). Specific binding is determined as total radioactive binding minus non-specific binding in the presence of 10 μM PGD2. IC50s were determined using GraphPad prism analysis of drug titration curves. Mouse, rat and guinea pig DP2 receptors were also investigated.

[9] = test system: CYP2C9
[10] = target: T4, mouse DP2 receptor (Mus musculus, UniProt Q9Z2J6); assay: DP2 radioligand membrane binding assay, mouse
T4 construct: expressed in transfected cells
T4 sequence (Q9Z2J6 1-382): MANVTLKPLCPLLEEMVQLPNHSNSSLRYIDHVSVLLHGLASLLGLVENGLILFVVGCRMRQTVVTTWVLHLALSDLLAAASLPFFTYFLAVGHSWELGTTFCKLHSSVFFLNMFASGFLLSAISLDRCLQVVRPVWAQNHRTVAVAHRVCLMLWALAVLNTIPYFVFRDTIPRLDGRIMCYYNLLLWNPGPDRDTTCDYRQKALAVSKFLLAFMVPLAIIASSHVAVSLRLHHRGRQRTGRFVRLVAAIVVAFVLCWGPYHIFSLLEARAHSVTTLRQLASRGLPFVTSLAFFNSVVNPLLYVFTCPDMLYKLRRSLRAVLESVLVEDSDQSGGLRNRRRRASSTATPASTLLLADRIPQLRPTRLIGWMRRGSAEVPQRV
Description: as §1

Work on CCN(Cc1cc(C(F)(F)F)ccc1-c1cc(CC(=O)O)ccc1OC)C(=O)NCc1ccccc1 [Compound 1, [2′-(3-benzyl-1-ethyl-ureidomethyl)-6-methoxy-4′-trifluoromethyl-biphenyl-3-yl]-acetic acid] yielded an IC50 [1] of 21.5 nM, an IC90 [2] of 7.5 nM and an IC50 ([2]; read-out: IC50, PGD2-induced eosinophil shape change) of 2.7 nM. For the same compound, the AUC0-24 (human, in vivo) was 44.5 ng·h/mL, the Cmax (human, in vivo) was 15.8 ng/mL and the t1/2 (multiple dose administration 30 mg, cohort 2, Day 7) was 11.0 h. For the same compound, the concentration at 1 h [3] was 280 nM, the concentration at 2 h [3] was 150 nM and the concentration at 4 h [3] was 70 nM. The concentration at 8 h [3] was 30 nM, the concentration at 24 h [3] was < 8 nM and the solubility at 24 h ([4]; pH 5.6, saline or isotonic, Media pH 6, original pH 6.02, final pH 5.60) was 160 µg/mL (≈ 320 µM). The solubility at 24 h ([4]; saline or isotonic, Media pH 1, original pH 1.15, final pH 1.15) was 6.9 µg/mL (≈ 13.8 µM), the solubility at 24 h ([4]; saline or isotonic, Media pH 2, original pH 2.0, final pH 2.0) was 1.6 µg/mL (≈ 3.2 µM) and the solubility at 24 h ([4]; saline or isotonic, Media pH 3, original pH 3.01, final pH 3.1) was 2.2 µg/mL (≈ 4.4 µM). For the same compound, the solubility at 24 h ([4]; saline or isotonic, Media pH 4, original pH 3.97, final pH 4.22) was 3.5 µg/mL (≈ 6.99 µM), the solubility at 24 h ([4]; saline or isotonic, Media pH 5, original pH 5.0, final pH 5.07) was 53 µg/mL (≈ 106 µM) and the solubility at 24 h ([4]; saline or isotonic, Media pH 7, original pH 7.03, final pH 6.47) was 590 µg/mL (≈ 1180 µM). For the same compound, the solubility at 24 h ([4]; saline or isotonic, Media pH 8, original pH 8.09, final pH 7.07) was 2200 µg/mL (≈ 4400 µM), the “off-rate from the DP2 receptor” value [5] was “longer off-rate than PGD2” and the IC50 [6] was < 20 nM. For the same compound, the concentration at 18.5 h [7] was < 40 nM, the IC50 ([8]; human DP2, membrane binding, read-out: average IC50, inhibition of radiolabeled PGD2 binding) was 4.9 nM and the IC50 ([8]; with human serum albumin, read-out: IC50, DP2 receptor binding) was 12.2 nM. The “increase in 4-hydroxydiclofenac (CYP2C9) production compared to native cells” value [9] was 1.1 fold, the IC50 ([10]; mouse DP2, membrane binding, read-out: average IC50, inhibition of radiolabeled PGD2 binding) was 7.8 nM and the IC50 ([10]; mouse DP2 receptor, in the presence of 0.2% mouse serum albumin, read-out: IC50, radioligand membrane binding) was 20.1 nM.
